Patent EP4755888A1 (ILAb Co., Ltd., priority 2023, dated 2025)

Each compound was assayed against PD-1/PD-L1 (Homo sapiens, UniProt Q9NZQ7) (assay: TR-FRET PD-1/PD-L1 binding inhibition at the molecular level (free proteins)). Conditions: Tag1-PD-L1 and Tag2-PD-1 proteins, twelve concentrations from 200 nM, 2 hours at room temperature, read-out: FRET assay (IC50).
Summary of the method: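 HTRF read-out at 665/620 nm after 2 h at room temperature. Detection used anti-Tag1 Eu cryptate plus anti-Tag2 XL665 antibodies. Tagged PD-L1 and PD-1 proteins were pre-mixed with compound across twelve […] 1:2 dilutions starting at 200 nM.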

Chain of PD-1/PD-L1 (Q9NZQ7 19-238 limits assumed): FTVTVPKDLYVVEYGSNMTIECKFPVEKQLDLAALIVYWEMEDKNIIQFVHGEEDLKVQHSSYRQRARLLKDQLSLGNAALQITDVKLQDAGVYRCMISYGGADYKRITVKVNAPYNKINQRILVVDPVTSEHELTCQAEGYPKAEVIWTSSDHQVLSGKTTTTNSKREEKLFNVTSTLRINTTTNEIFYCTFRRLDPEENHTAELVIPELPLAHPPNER

SMILES	IC50 [nM]
Cc1c(NC(=O)c2cc3c(NC(C)(C)C(=O)O)cccn3n2)cccc1-c1cccc(Nc2nccc3cc(CN4CC[C@@H](O)C4)cnc23)c1C [Compound 17, (R)-2-((2-((3'-((3-((3-hydroxypyrrolidin-1-yl)methyl)-1,7-naphthyridin-8-yl)amino)-2,2'-dimethyl-[1,1'-biphenyl]-3-yl)carbamoyl)pyrazolo[1,5-a]pyridin-4-yl)amino)-2-methylpropanoic acid]	< 10
COc1nc(-c2cccc(-c3cccc(-c4cc5n(n4)CCCC5N4CC[C@@H](O)C4)c3Cl)c2Cl)cnc1CNC[C@@H]1CCC(=O)N1 (stereo partly drawn) [Compound 170, (5S)-5-((((5-(2,2'-dichloro-3'-(4-((R)-3-hydroxypyrrolidin-1-yl)-4,5,6,7-tetrahydropyrazolo[1,5-a]pyridin-2-yl)-[1,1'-biphenyl]-3-yl)-3-methoxypyrazin-2-yl)methyl)amino)methyl)pyrrolidin-2-one]	10 to 100
O=C(Nc1cccc(-c2cccc(Nc3nc(C(F)(F)F)nc4cc(CN5CC[C@@H](O)C5)cnc34)c2Cl)c1Cl)c1cc2n(n1)CCC[C@H]2N1CCC(C(=O)O)CC1 [Compound 337]	10 to 100
Cc1c(NC(=O)c2cc3n(n2)CCCC3O)cccc1-c1cccc(Nc2nc(C(F)F)nc3cc(CN4CC[C@@H](O)C4)cnc23)c1C (stereo partly drawn) [Compound 129, N-(3'-((2-(difluoromethyl)-7-(((R)-3-hydroxypyrrolidin-1-yl)methyl)pyrido[3,2-d]pyrimidin-4-yl)amino)-2,2'-dimethyl-[1,1'-biphenyl]-3-yl)-4-hydroxy-4,5,6,7-tetrahydropyrazolo[1,5-a]pyridine-2-carboxamide]	< 10
Cc1c(NC(=O)c2cc3n(n2)CCCC3NC[C@@H]2CCC(=O)N2)cccc1-c1cccc(Nc2nccc3cc(CN4CC[C@@H](O)C4)cnc23)c1Cl (stereo partly drawn) [Compound 40, N-(2'-chloro-3'-((3-(((R)-3-hydroxypyrrolidin-1-yl)methyl)-1,7-naphthyridin-8-yl)amino)-2-methyl-[1,1'-biphenyl]-3-yl)-4-((((S)-5-oxopyrrolidin-2-yl)methyl)amino)-4,5,6,7-tetrahydropyrazolo[1,5-a]pyridine-2-carboxamide]	10 to 100
O=C(O)CN[C@H]1CCCn2nc(C(=O)Nc3cccc(-c4cccc(NC(=O)c5cc6n(n5)CCC[C@@H]6NCC(=O)O)c4Cl)c3Cl)cc21 [Compound 317, 2,2'-(((4S,4'S)-2,2'-(((2,2'-dichloro-[1,1'-biphenyl]-3,3'-diyl)bis(azanediyl))bis(carbonyl))bis(4,5,6,7-tetrahydropyrazolo[1,5-a]pyridine-4,2-diyl))bis(azanediyl))diacetic acid]	< 10
CC(=O)NCCNC1CCCn2nc(C(=O)Nc3cccc(-c4cccc(NC(=O)c5nc6c(n5C)CCN(CCC57CCC(C(=O)O)(CC5)C7)C6)c4C)c3C)cc21 (centres unmarked) [Compound 46, 4-(2-(2-((3'-(4-((2-acetamidoethyl)amino)-4,5,6,7-tetrahydropyrazolo[1,5-a]pyridine-2-carboxamido)-2,2'-dimethyl-[1,1'-biphenyl]-3-yl)carbamoyl)-1-methyl-6,7-dihydro-1H-imidazo[4,5-c]pyridin-5(4H)-yl)ethyl)bicyclo[2.2.1]heptane-1-carboxylic acid]	< 10
CC(=O)NCCNC1CCCn2nc(C(=O)Nc3cccc(-c4cccc(-c5nc6cc(CN7CC[C@@H](C(=O)O)C7)cc(C#N)c6o5)c4C)c3C)cc21 (stereo partly drawn) [Compound 62, (3R)-1-((2-(3'-(4-((2-acetamidoethyl)amino)-4,5,6,7-tetrahydropyrazolo[1,5-a]pyridine-2-carboxamido)-2,2'-dimethyl-[1,1'-biphenyl]-3-yl)-7-cyanobenzo[d]oxazol-5-yl)methyl)pyrrolidine-3-carboxylic acid]	< 10
O=C(Nc1cccc(-c2cccc(Nc3nccc4cc(CN5CC[C@H](O)C5)cnc34)c2Cl)c1Cl)c1cc2n(n1)CCCC2N1CCC(O)CC1 (stereo partly drawn) [Compound 97, N-(2,2'-dichloro-3'-((3-(((S)-3-hydroxypyrrolidin-1-yl)methyl)-1,7-naphthyridin-8-yl)amino)-[1,1'-biphenyl]-3-yl)-4-(4-hydroxypiperidin-1-yl)-4,5,6,7-tetrahydropyrazolo[1,5-a]pyridine-2-carboxamide]	< 10
Cc1c(NC(=O)c2cc3n(n2)CCCC3NC[C@@H]2CCC(=O)N2)cccc1-c1cccc(NC(=O)c2nc3c(n2C)CCN(CCC24CCC(C(=O)O)(CC2)C4)C3)c1C (stereo partly drawn) [Compound 49, 4-(2-(2-((2,2'-dimethyl-3'-(4-((((S)-5-oxopyrrolidin-2-yl)methyl)amino)-4,5,6,7-tetrahydropyrazolo[1,5-a]pyridine-2-carboxamido)-[1,1'-biphenyl]-3-yl)carbamoyl)-1-methyl-6,7-dihydro-1H-imidazo[4,5-c]pyridin-5(4H)-yl)ethyl)bicyclo[2.2.1]heptane-1-carboxylic acid]	< 10
O=C(O)CNC1CCCn2nc(-c3cccc(-c4cccc(Nc5nccc6cc(CN7CC[C@@H](O)C7)cnc56)c4Cl)c3Cl)cc21 (stereo partly drawn) [Compound 185, 2-((2-(2,2'-dichloro-3'-((3-(((R)-3-hydroxypyrrolidin-1-yl)methyl)-1,7-naphthyridin-8-yl)amino)-[1,1'-biphenyl]-3-yl)-4,5,6,7-tetrahydropyrazolo[1,5-a]pyridin-4-yl)amino)acetic acid]	< 10
O=C(O)CNC1CCCn2nc(C(=O)Nc3cccc(-c4cccc(NC(=O)c5nc6c(s5)CN(CCF)CC6)c4Cl)c3Cl)cc21 (centres unmarked) [Compound 150-2, 2-((2-((2,2'-dichloro-3'-(5-(2-fluoroethyl)-4,5,6,7-tetrahydrothiazolo[5,4-c]pyridine-2-carboxamido)-[1,1'-biphenyl]-3-yl)carbamoyl)-4,5,6,7-tetrahydropyrazolo[1,5-a]pyridin-4-yl)amino)acetic acid]	< 10
N#Cc1cc(CN2CC[C@@H](C(=O)O)C2)cc2nc(-c3cccc(-c4cccc(NC(=O)c5cc6n(n5)CCCC6O)c4Cl)c3Cl)oc12 (stereo partly drawn) [Compound 67, (3R)-1-((7-cyano-2-(2,2'-dichloro-3'-(4-hydroxy-4,5,6,7-tetrahydropyrazolo[1,5-a]pyridine-2-carboxamido)-[1,1'-biphenyl]-3-yl)benzo[d]oxazol-5-yl)methyl)pyrrolidine-3-carboxylic acid]	< 10

Next, values leading:

IC50 [nM]	SMILES
< 10	Cc1c(NC(=O)c2cc3n(n2)CCC[C@@H]3N2CCC(C(=O)O)CC2)cccc1-c1cccc(Nc2nc(C(F)F)nc3cc(CN4CC[C@@H](O)C4)cnc23)c1C [Compound 267, 1-((S)-2-((3'-((2-(difluoromethyl)-7-(((R)-3-hydroxypyrrolidin-1-yl)methyl)pyrido[3,2-d]pyrimidin-4-yl)amino)-2,2'-dimethyl-[1,1'-biphenyl]-3-yl)carbamoyl)-4,5,6,7-tetrahydropyrazolo[1,5-a]pyridin-4-yl)piperidine-4-carboxylic acid]
< 10	COc1cc(C(=O)Nc2cccc(-c3cccc(NC(=O)c4cc5n(n4)CCCC5N4CC[C@@H](C(=O)O)C4)c3Cl)c2Cl)cc(F)c1CNCC(=O)O (stereo partly drawn) [Compound 195, (3R)-1-(2-((3'-(4-(((carboxymethyl)amino)methyl)-3-fluoro-5-methoxybenzamido)-2,2'-dichloro-[1,1'-biphenyl]-3-yl)carbamoyl)-4,5,6,7-tetrahydropyrazolo[1,5-a]pyridin-4-yl)pyrrolidine-3-carboxylic acid]
10 to 100	CC(=O)N1CC2(C1)CN(C1CCCn3nc(C(=O)Nc4cccc(-c5cccc(Nc6nccc7cc(CN8CC[C@@H](O)C8)cnc67)c5Cl)c4Cl)cc31)C2 (stereo partly drawn) [Compound 236, 4-(6-acetyl-2,6-diazaspiro[3.3]heptan-2-yl)-N-(2,2'-dichloro-3'-((3-(((R)-3-hydroxypyrrolidin-1-yl)methyl)-1,7-naphthyridin-8-yl)amino)-[1,1'-biphenyl]-3-yl)-4,5,6,7-tetrahydropyrazolo[1,5-a]pyridine-2-carboxamide]
< 10	Cc1nc(Nc2cccc(-c3cccc(NC(=O)c4cc5n(n4)CCC[C@H]5N4CC(C(=O)O)C4)c3Cl)c2Cl)c2ncccc2n1 [Compound 282, (R)-1-(2-((2,2'-dichloro-3'-((2-methylpyrido[3,2-d]pyrimidin-4-yl)amino)-[1,1'-biphenyl]-3-yl)carbamoyl)-4,5,6,7-tetrahydropyrazolo[1,5-a]pyridin-4-yl)azetidine-3-carboxylic acid]
10 to 100	COc1cc(/C(F)=C/c2cccc(-c3cccc(NC(=O)c4cc5n(n4)CCC[C@@H]5N4CC[C@@H](O)C4)c3Cl)c2Cl)ncc1CN1CC[C@@H](O)C1 [Compound 335, (S)-N-(2,2'-dichloro-3'-((Z)-2-fluoro-2-(5-(((R)-3-hydroxypyrrolidin-1-yl)methyl)-4-methoxypyridin-2-yl)vinyl)-[1,1'-biphenyl]-3-yl)-4-((R)-3-hydroxypyrrolidin-1-yl)-4,5,6,7-tetrahydropyrazolo[1,5-a]pyridine-2-carboxamide]
10 to 100	O=C(Nc1cccc(-c2cccc(Nc3nccc4cc(CN5CC[C@@H](O)C5)cnc34)c2Cl)c1Cl)c1cc2n(n1)CCCC2NC1CCOCC1 (stereo partly drawn) [Compound 231, N-(2,2'-dichloro-3'-((3-(((R)-3-hydroxypyrrolidin-1-yl)methyl)-1,7-naphthyridin-8-yl)amino)-[1,1'-biphenyl]-3-yl)-4-((tetrahydro-2H-pyran-4-yl)amino)-4,5,6,7-tetrahydropyrazolo[1,5-a]pyridine-2-carboxamide]
10 to 100	Cc1c(NC(=O)c2cc3n(n2)CCC[C@H]3N2CCC(C(=O)O)CC2)cccc1-c1cccc(Nc2nc(C(F)(F)F)nc3cc(CN4CC[C@@H](O)C4)cnc23)c1C (stereo in doubt) [Compound 343, 1-((R)-2-((3'-((7-(((R)-3-hydroxypyrrolidin-1-yl)methyl)-2-(trifluoromethyl)pyrido[3,2-d]pyrimidin-4-yl)amino)-2,2'-dimethyl-[1,1'-biphenyl]-3-yl)carbamoyl)-4,5,6,7-tetrahydropyrazolo[1,5-a]pyridin-4-yl)piperidine-4-carboxylic acid]
